Measured values from ChEMBL document CHEMBL4346765, “Design, synthesis and biological evaluation of novel dithiocarbamate-substituted diphenylaminopyrimidine derivatives as BTK inhibitors” (Bioorg Med Chem, 2019).
Calls of active or inactive are those of the source. The rule behind the calls is not given here.

How the values were obtained:
Raji = assay: Antiproliferative activity against human Raji cells assessed as reduction in cell growth incubated for 48 hrs by MTS assay
[1] = molecular target: T1, Tyrosine-protein kinase BTK (Homo sapiens, UniProt Q06187); assay: Inhibition of human recombinant full length BTK expressed in baculovirus in Sf9 insect cells using Poly (4:1 Glu, Tyr) as substrate incubated for 1 hr by ADP-Glo assay
T1 sequence (Q06187 whole entry): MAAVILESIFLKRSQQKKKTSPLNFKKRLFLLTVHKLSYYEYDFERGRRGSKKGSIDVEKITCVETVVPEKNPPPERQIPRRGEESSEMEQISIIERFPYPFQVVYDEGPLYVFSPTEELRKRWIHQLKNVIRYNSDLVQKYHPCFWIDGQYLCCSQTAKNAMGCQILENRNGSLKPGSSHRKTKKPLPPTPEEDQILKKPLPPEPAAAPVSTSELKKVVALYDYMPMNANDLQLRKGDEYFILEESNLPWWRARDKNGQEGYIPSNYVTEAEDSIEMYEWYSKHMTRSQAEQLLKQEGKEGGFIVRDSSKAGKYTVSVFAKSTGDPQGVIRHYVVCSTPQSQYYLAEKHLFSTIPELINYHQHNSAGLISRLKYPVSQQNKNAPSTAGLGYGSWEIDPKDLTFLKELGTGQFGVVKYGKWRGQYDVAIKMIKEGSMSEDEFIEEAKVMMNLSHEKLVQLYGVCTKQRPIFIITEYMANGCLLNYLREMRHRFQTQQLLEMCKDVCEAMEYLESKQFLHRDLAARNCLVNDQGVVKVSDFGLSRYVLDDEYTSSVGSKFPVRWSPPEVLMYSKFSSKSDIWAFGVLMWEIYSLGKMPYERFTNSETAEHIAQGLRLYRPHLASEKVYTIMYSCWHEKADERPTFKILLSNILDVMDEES

Ramos [2] = assay: Antiproliferative activity against human Ramos cells assessed as reduction in cell growth incubated for 48 hrs by MTS assay
[3] = molecular target: T1, Tyrosine-protein kinase BTK; assay: Inhibition of BTK in anti-IgM-stimulated human Ramos cells assessed as reduction in PLCgamma2 phosphorylation at Y1217 residues at 10 uM incubated for 4 hrs followed by anti-IgM stimulation for 30 mins by Western blot analysis; assay type: cell-based
[4] = Cytotoxicity against human HELF cells assessed as reduction in cell viability at 0.1 to 40 uM incubated for 48 hrs by MTS assay; assay type: cell-based
K562 = assay: Cytotoxicity against human K562 cells assessed as reduction in cell viability at 0.1 to 40 uM incubated for 48 hrs by MTS assay; assay type: functional, cell-based; conditions: K562, 48 h
HT-29 = assay: Cytotoxicity against human HT-29 cells assessed as reduction in cell viability at 0.1 to 40 uM incubated for 48 hrs by MTS assay; assay type: functional, cell-based; conditions: HT-29, 48 h
HepG2 = assay: Cytotoxicity against human HepG2 cells assessed as reduction in cell viability at 0.1 to 40 uM incubated for 48 hrs by MTS assay; assay type: functional, cell-based; conditions: HepG2, 48 h
MCF7 = assay: Cytotoxicity against human MCF7 cells assessed as reduction in cell viability at 0.1 to 40 uM incubated for 48 hrs by MTS assay; assay type: functional, cell-based; conditions: MCF7, 48 h
KARPAS-299 = assay: Cytotoxicity against human KARPAS299 cells assessed as reduction in cell viability at 0.1 to 40 uM incubated for 48 hrs by MTS assay; assay type: functional, cell-based; conditions: KARPAS-299, 48 h
NCI-H1299 = assay: Cytotoxicity against human H1299 cells assessed as reduction in cell viability at 0.1 to 40 uM incubated for 48 hrs by MTS assay; assay type: functional, cell-based; conditions: NCI-H1299, 48 h
HEF = assay: Cytotoxicity against human HEF cells assessed as reduction in cell viability at 0.1 to 40 uM incubated for 48 hrs by MTS assay; assay type: cell-based
MDA-MB-231 = assay: Cytotoxicity against human MDA-MB-231 cells assessed as reduction in cell viability at 0.1 to 40 uM incubated for 48 hrs by MTS assay; assay type: functional, cell-based; conditions: MDA-MB-231, 48 h
Jurkat = assay: Cytotoxicity against human Jurkat cells assessed as reduction in cell viability at 0.1 to 40 uM incubated for 48 hrs by MTS assay; assay type: functional, cell-based
HeLa = assay: Cytotoxicity against human HeLa cells assessed as reduction in cell viability at 0.1 to 40 uM incubated for 48 hrs by MTS assay; assay type: functional, cell-based
BJ = assay: Cytotoxicity against human BJ cells assessed as reduction in cell viability at 0.1 to 40 uM incubated for 48 hrs by MTS assay; assay type: cell-based
PC-3 = assay: Cytotoxicity against human PC3 cells assessed as reduction in cell viability at 0.1 to 40 uM incubated for 48 hrs by MTS assay; assay type: functional, cell-based; conditions: PC-3, 48 h
A549 = assay: Cytotoxicity against human A549 cells assessed as reduction in cell viability at 0.1 to 40 uM incubated for 48 hrs by MTS assay; assay type: functional, cell-based; conditions: A549, 48 h
MCF-10A = assay: Cytotoxicity against human MCF10A cells assessed as reduction in cell viability at 0.1 to 40 uM incubated for 48 hrs by MTS assay; assay type: cell-based
NCI-H3122 = assay: Cytotoxicity against human NCI-H3122 cells assessed as reduction in cell viability at 0.1 to 40 uM incubated for 48 hrs by MTS assay; assay type: functional, cell-based; conditions: NCI-H3122, 48 h
Ramos [5] = assay: Antitumor activity in human Ramos cells xenografted in NOD/SCID mouse assessed as reduction in tumor growth at 30 mg/kg/day, ip administered daily for 14 days; assay type: functional; conditions: 336 h, read-out: TGI
786-0 = assay: Cytotoxicity against human 786-O cells assessed as reduction in cell viability at 0.1 to 40 uM incubated for 48 hrs by MTS assay; assay type: functional, cell-based; conditions: 786-0, 48 h

Row | Compound | IC50 (Raji) | IC50 [1] | IC50 (Ramos [2]) | other results
1 | C=CC(=O)Nc1cccc(Nc2nc(Nc3ccc(OCCCCSC(=S)N4CCN(C(C)C)CC4)cc3)ncc2F)c1 | 4450 nM | 131 nM | 2920 nM | 
2 | C=CC(=O)Nc1cccc(Nc2nc(Nc3ccc(OCCSC(=S)N4CCCCC4)cc3)ncc2F)c1 | 13400 nM | 83.6 nM | 7650 nM | 
3 | C=CCNC(=S)SCCOc1ccc(Nc2ncc(F)c(Nc3cccc(NC(=O)C=C)c3)n2)cc1 | 13300 nM | 91.7 nM | 4320 nM | 
4 | C=CC(=O)Nc1cccc(Nc2nc(Nc3ccc(OCCSC(=S)N4CCN(C(=O)OC(C)(C)C)CC4)cc3)ncc2F)c1 | > 40000 nM | 264 nM | 14500 nM | 
5 | C=CC(=O)Nc1cccc(Nc2nc(Nc3ccc(OCCCCSC(=S)N(C)C)cc3)ncc2F)c1 | 10200 nM | 35.4 nM | 15400 nM | 
6 | C=CC(=O)Nc1cccc(Nc2nc(Nc3ccc(OCCCSC(=S)NCc4cccnc4)cc3)ncc2F)c1 | 1020 nM | 2.39 nM | 1420 nM | 
7 | CCC(=O)Nc1cccc(Nc2nc(Nc3ccc(OCCSC(=S)NCc4cccnc4)cc3)ncc2F)c1 | > 40000 nM | > 500 nM | > 40000 nM | inhibition [3]: inactive
8 | C=CC(=O)Nc1cccc(Nc2nc(Nc3ccc(OCCSC(=S)N(CCC)CCC)cc3)ncc2F)c1 | > 40000 nM | 241 nM | > 40000 nM | 
9 | C=CC(=O)Nc1cccc(Nc2nc(Nc3ccc(OCCSC(=S)N(C)Cc4cccnc4)cc3)ncc2F)c1 | 4840 nM | 30.7 nM | 2730 nM | 
10 | C=CC(=O)Nc1cccc(Nc2nc(Nc3ccc(OCCSC(=S)NCc4ccccc4)cc3)ncc2F)c1 | 2220 nM | 10.8 nM | 1380 nM | 
11 | C=CC(=O)N1CCC[C@@H](n2nc(-c3ccc(Oc4ccccc4)cc3)c3c(N)ncnc32)C1 [IBRUTINIB] | 17700 nM |  | 1880 nM | 
12 | C=CC(=O)Nc1cccc(Nc2nc(Nc3ccc(OCCSC(=S)NC(C)C)cc3)ncc2F)c1 | 9580 nM | 98.2 nM | 9310 nM | 
13 | C=CC(=O)Nc1cccc(Nc2nc(Nc3ccc(OCCSC(=S)N4CCc5ccccc5C4)cc3)ncc2F)c1 | > 40000 nM | > 500 nM | > 40000 nM | 
14 | C=CC(=O)Nc1cccc(Nc2nc(Nc3ccc(NC(=O)CSC(=S)NCc4cccnc4)cc3)ncc2F)c1 | 310 nM | 18.4 nM | 1130 nM | 
15 | C=CC(=O)Nc1cccc(Nc2nc(Nc3ccc(OCCSC(=S)NCc4cccc(F)c4)cc3)ncc2F)c1 | 1150 nM | 6.9 nM | 1240 nM | 
16 | C=CC(=O)Nc1cccc(Nc2nc(Nc3ccc(OCCSC(=S)NCc4ccc(OC)cc4)cc3)ncc2F)c1 | 1280 nM | 5.68 nM | 3220 nM | 
17 | C=CC(=O)Nc1cccc(Nc2nc(Nc3ccc(OCCSC(=S)NCc4ccccn4)cc3)ncc2F)c1 | 10300 nM | 18.5 nM | 2670 nM | 
18 | C=CC(=O)Nc1cccc(Nc2nc(Nc3ccc(OCCSC(=S)NC4CC4)cc3)ncc2F)c1 | 6290 nM | 2.5 nM | 5090 nM | 
19 | C=CC(=O)Nc1cccc(Nc2nc(Nc3ccc(NC(=O)CCSC(=S)NCc4cccnc4)cc3)ncc2F)c1 | 340 nM | 23.7 nM | 1220 nM | 
20 | C=CC(=O)Nc1cccc(Nc2nc(Nc3ccc(OCCSC(=S)NC4CCCCC4)cc3)ncc2F)c1 | 9750 nM | 115 nM | 9460 nM | 
21 | C=CC(=O)Nc1cccc(Nc2nc(Nc3ccc(OCCSC(=S)N4CC(C)OC(C)C4)cc3)ncc2F)c1 (stereo not drawn) | 6130 nM | 27.1 nM | 2290 nM | 

Row | Compound | IC50 (Raji) | IC50 [1] | IC50 (Ramos [2]) | other results
22 | C=CC(=O)Nc1cccc(Nc2nc(Nc3ccc(OCCCCSC(=S)NCc4cccnc4)cc3)ncc2F)c1 | 1050 nM | 16.5 nM | 1490 nM | 
23 | C=CC(=O)Nc1cccc(Nc2nc(Nc3ccc(OCCSC(=S)NCc4cc(OC)c(OC)c(OC)c4)cc3)ncc2F)c1 | 561 nM | 48.6 nM | 2250 nM | 
24 | C=CC(=O)Nc1cccc(Nc2nc(Nc3ccc(OCCSC(=S)NCC)cc3)ncc2F)c1 | 8640 nM | 15 nM | 3440 nM | 
25 | C=CC(=O)Nc1cccc(Nc2nc(Nc3ccc(OCCCSC(=S)N(C)C)cc3)ncc2F)c1 | 4980 nM | 13.9 nM | 4360 nM | 
26 | C=CC(=O)Nc1cccc(Nc2nc(Nc3ccc(OCCSC(=S)N4CCN(c5ccccc5)CC4)cc3)ncc2F)c1 | 15000 nM | 386 nM | 20600 nM | 
27 | C=CC(=O)Nc1cccc(Nc2nc(Nc3ccc(OCCOC)cc3)ncc2F)c1 [SPEBRUTINIB] | 21600 nM |  | 5440 nM | IC50 [4]: 16000 nM; IC50 (K562): 12600 nM; IC50 (HT-29): 18900 nM; IC50 (HepG2): 33500 nM; IC50 (MCF7): 29000 nM; IC50 (KARPAS-299): 20300 nM; IC50 (NCI-H1299): 38500 nM; IC50 (HEF): 22600 nM; IC50 (MDA-MB-231): > 40000 nM; IC50 (Jurkat): 6700 nM; IC50 (HeLa): 17400 nM; IC50 (BJ): 27600 nM; IC50 (PC-3): 22200 nM; IC50 (A549): 1980 nM; IC50 (MCF-10A): 4360 nM; IC50 (NCI-H3122): 32500 nM; inhibition in vivo at 30 mg/kg/day (Ramos [5]): 28.9%; IC50 (786-0): 14900 nM
28 | C=CC(=O)Nc1cccc(Nc2nc(Nc3ccc(OCCSC(=S)N(CC)CC)cc3)ncc2F)c1 | 13700 nM | 23.3 nM | 3540 nM | 
29 | C=CC(=O)Nc1cccc(Nc2nc(Nc3ccc(OCCSC(=S)N4CCN(C(C)C)CC4)cc3)ncc2F)c1 | 3930 nM | 56.9 nM | 1020 nM | 
30 | C=CC(=O)Nc1cccc(Nc2nc(Nc3ccc(OCCSC(=S)N4CCN(C(C)=O)CC4)cc3)ncc2F)c1 | 3530 nM | 80.3 nM | 2760 nM | 
31 | C=CC(=O)Nc1cccc(Nc2nc(Nc3ccc(OCCCSC(=S)N4CCN(C(C)C)CC4)cc3)ncc2F)c1 | 8250 nM | 63.2 nM | 1360 nM | 
32 | C=CC(=O)Nc1cccc(Nc2nc(Nc3ccc(OCCSC(=S)N4CCN(CCO)CC4)cc3)ncc2F)c1 | 7760 nM | 68.3 nM | 3740 nM | 
33 | C=CC(=O)Nc1cccc(Nc2nc(Nc3ccc(OCCSC(=S)NCc4ccc(C#N)cc4)cc3)ncc2F)c1 | 1220 nM | 8.58 nM | 1030 nM | 
34 | C=CC(=O)Nc1cccc(Nc2nc(Nc3ccc(OCCSC(=S)N4CCOCC4)cc3)ncc2F)c1 | 4240 nM | 29.9 nM | 2870 nM | 
35 | C=CC(=O)Nc1cccc(Nc2nc(Nc3ccc(OCCSC(=S)NCc4cnccn4)cc3)ncc2F)c1 | 6570 nM | 8.49 nM | 4420 nM | 
36 | C=CC(=O)Nc1cccc(Nc2nc(Nc3ccc(OCCSC(=S)NC)cc3)ncc2F)c1 | 7170 nM | 8.21 nM | 5940 nM | 
37 | C=CC(=O)Nc1cccc(Nc2nc(Nc3ccc(OCCSC(=S)N4CCCC4)cc3)ncc2F)c1 | 15300 nM | 154 nM | 2970 nM | 
38 | C=CC(=O)Nc1cccc(Nc2nc(Nc3ccc(OCCSC(=S)N(C)C)cc3)ncc2F)c1 | 13800 nM | 1.44 nM | 9530 nM | 
39 | C=CC(=O)Nc1cccc(Nc2nc(Nc3ccc(OCCSC(=S)NCc4ccncc4)cc3)ncc2F)c1 | 501 nM | 7.36 nM | 574 nM | 
40 | C=CC(=O)Nc1cccc(Nc2nc(Nc3ccc(OCCSC(=S)N4CCN(C)CC4)cc3)ncc2F)c1 | 3900 nM | 35.6 nM | 1900 nM | 
41 | C=CC(=O)Nc1cccc(Nc2nc(Nc3ccc(OCCSC(=S)N4CCN(Cc5ccccc5)CC4)cc3)ncc2F)c1 | > 40000 nM | 283 nM | 2070 nM | 
42 | C=CC(=O)Nc1cccc(Nc2nc(Nc3ccc(OCCSC(=S)N(CCCC)CCCC)cc3)ncc2F)c1 | 20900 nM | 125 nM | 9210 nM | 
